The results in this text go back to US20160199349A1 (priority 2012, published 2016).

Molecules are shown by their SMILES. Several values for one entry are separate records, joined by “and”; a condition that tells them apart may be missing. Identical values can stand only once.

For experiment [1], the system named is male albino rats (Sprague Dawley). To be noted: rat, in vivo, ip.
In a further experiment the test system is rat. In words: animal or person. In kind it is in vivo.

For orientation: ED50 means the dose that gives a 50% effect, or the effect in half of the subjects. On to `CC(C)Cc1ccc(C(C)C(=O)O)cc1` (stereo not drawn) [ibuprofen], for which the “ED25 (95% CI)” value in experiment [1] was 117 mg/kg and 117 (90.1-196) mg/kg. Moreover, the ED50 in the experiment with rat (Rattus norvegicus, ip, 0.5 h, read-out: ED50 (95% CI)) is 139 mg/kg. The “timepoint of peak effect” value in the experiment on rat (rat, in vivo) worked out at 30 min p. appl.
